Experimental data from patent publication US20140116434A1, “Dry Powder Inhaler Compositions” (GLAXO GROUP LIMITED, priority 2011, published 2014).

How the values were obtained:
pre-clinical models = assay: duration of action in vivo, administered directly to the lungs in pre-clinical models; parameters: species or system animals
human M3 receptor = human M3 receptor (Homo sapiens, UniProt P20309); assay: reversibility at the human M3 receptor in vitro; assay type: binding
[1] = system: healthy volunteers and COPD patients; assay: clinical pharmacology studies, single inhaled doses, plethysmography (sGaw, Raw) and spirometry (FEV1); assay type: in vivo, human
Method: Several clinical pharmacology studies have been conducted using 4-[hydroxy(diphenyl)methyl]-1-{2-[(phenylmethyl)oxy]ethyl}-1-azoniabicyclo[2.2.2]octane bromide in both healthy volunteers and COPD patients to investigate the safety, tolerability, pharmacokinetics and pharmacodynamics of this compound. The bronchodilatory effects and duration of action of single inhaled doses of this compound as measured by plethysmography (sGaw, Raw) and spirometry (FEV1) were assessed in some of the above noted studies.

[2] = system: healthy Japanese volunteers; assay: single inhaled dose four-way crossover study, monotherapies and combination; assay type: in vivo, human; details: single inhaled doses, 500 mcg and/or 50 mcg
From the text: A combination of 4-[hydroxy(diphenyl)methyl]-1-{2-[(phenylmethyl)oxy]ethyl}-1-azoniabicyclo[2.2.2]octane bromide and the compound of formula (II) as the triphenylacetate salt has been administered to sixteen healthy Japanese volunteers, aged 20 to 65, as part of a clinical trial to assess the safety, tolerability, pharmacokinetics and pharmacodynamics of single inhaled doses of 4-[hydroxy(diphenyl)methyl]-1-{2-[(phenylmethyl)oxy]ethyl}-1-azoniabicyclo[2.2.2]octane bromide and the compound of formula (II) triphenylacetate as monotherapies and in combination. […]
This clinical study in healthy Japanese volunteers, evaluated the effect of 4-[hydroxy(diphenyl)methyl]-1-{2-[(phenylmethyl)oxy]ethyl}-1-azoniabicyclo[2.2.2]octane bromide (500 mcg dose) and the compound of formula (II) triphenylacetate (50 mcg dose) administered as single inhaled doses and concurrently (4-[hydroxy(diphenyl)methyl]-1-{2-[(phenylmethyl)oxy]ethyl}-1-azoniabicyclo[2.2.2]octane bromide (500 mcg dose) and the compound of formula (II) triphenylacetate (50 mcg dose)) on lung function parameters. […] In this study FEV1 values were recorded. […]

muscarinic receptor = muscarinic receptor antagonism, studies in animal models and in humans
subjects with COPD [3] = assay: 14-day once-daily study in subjects with COPD; assay type: in vivo, human; details: 14-day treatment period
From the text: In addition, this study confirmed that 4-[hydroxy(diphenyl)methyl]-1-{2-[(phenylmethyl)oxy]ethyl}-1-azoniabicyclo[2.2.2]octane bromide has a once-daily profile.

subjects with COPD [4] = assay: 28 day once-daily dry powder inhaler study in subjects with COPD; assay type: in vivo, human; details: 125, 250 and 500 mcg once-daily, 28 day period
From the text: A further study evaluated the efficacy and safety of three doses (125 mcg, 250 mcg and 500 mcg) of 4-[hydroxy(diphenyl)methyl]-1-{2-[(phenylmethyl)oxy]ethyl}-1-azoniabicyclo[2.2.2]octane bromide administered once-daily via a dry powder inhaler over a 28 day period in subjects with COPD.

asthmatic patients = assay: clinical pharmacology studies of the compound of formula (II) in asthmatic patients; assay type: in vivo, human; details: all doses tested
From the text: The compound of formula (II) as the α-phenylcinnamate salt and the triphenylacetate salt has been studied in a number of clinical pharmacology studies, including single- and repeat-dose studies. In addition, these studies have evaluated the compound of formula (II) formulated with lactose and either cellobiose octaacetate or magnesium stearate.

[5] = assay type: in vivo, animal and human
[6] = system: subjects with persistent uncontrolled asthma; assay: 8 week randomised, double-blind, placebo-controlled study in persistent uncontrolled asthma; assay type: in vivo, human
Method: In one such study, the safety and efficacy of four doses of 6α,9α-difluoro-17α-[(2-furanylcarbonyl)oxy]-11β-hydroxy-16α-methyl-3-oxo-androsta-1,4-diene-17β-carbothioic acid S-fluoromethyl ester (fluticasone furoate) in subjects with persistent uncontrolled asthma were evaluated. In this study, which was a randomised, double-blind, placebo-controlled, parallel group study, 598 patients received one of six treatments: fluticasone furoate (25, 50, 100 or 200 mcg) once daily, fluticasone propionate 100 mcg twice daily or placebo for 8 weeks. The primary endpoint was change from baseline in trough (pre-dose) forced expiratory volume in 1 second (FEV1) at Week 8. […] This study supports the use of fluticasone furoate (100 or 200 mcg once-daily) for the treatment of persistant uncontrolled asthma.

Sequence of human M3 receptor (P20309 whole entry): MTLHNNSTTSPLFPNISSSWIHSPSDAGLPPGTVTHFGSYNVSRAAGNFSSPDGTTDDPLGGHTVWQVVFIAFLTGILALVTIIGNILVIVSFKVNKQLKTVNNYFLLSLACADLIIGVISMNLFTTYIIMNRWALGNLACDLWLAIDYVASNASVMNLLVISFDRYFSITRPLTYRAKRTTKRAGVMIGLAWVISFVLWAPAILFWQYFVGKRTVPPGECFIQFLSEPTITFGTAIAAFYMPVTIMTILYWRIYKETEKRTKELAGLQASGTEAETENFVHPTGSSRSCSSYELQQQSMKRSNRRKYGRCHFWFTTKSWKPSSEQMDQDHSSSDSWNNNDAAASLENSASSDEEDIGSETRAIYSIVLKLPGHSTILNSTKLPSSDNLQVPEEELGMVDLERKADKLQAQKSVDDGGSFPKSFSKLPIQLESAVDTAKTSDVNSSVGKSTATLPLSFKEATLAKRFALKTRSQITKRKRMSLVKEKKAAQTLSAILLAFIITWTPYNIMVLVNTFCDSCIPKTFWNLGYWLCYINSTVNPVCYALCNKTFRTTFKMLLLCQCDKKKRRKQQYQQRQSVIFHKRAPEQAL

With `OC(c1ccccc1)(c1ccccc1)C12CC[N+](CCOCc3ccccc3)(CC1)CC2.[Br-]` [4-[hydroxy(diphenyl)methyl]-1-{2-[(phenylmethyl)oxy]ethyl}-1-azoniabicyclo[2.2.2]octane bromide] the “duration of action in vivo” value (pre-clinical models) was “long duration of action”, the “reversibility at the human M3 receptor” value (human M3 receptor) was “slow reversibility” and the “bronchodilatory effects (sGaw, Raw, FEV1)” value [1] was “clinically relevant bronchodilation”. The duration of action [1] was 24 h, the tolerability ([2]; dry powder inhalers) was “well tolerated” and the “FEV1 values compared with placebo” value [2] was “higher”. For the same compound, the “muscarinic receptor antagonist profile” value (muscarinic receptor) was “long acting high-affinity pan-active muscarinic receptor antagonist”, the “pulmonary function compared to placebo” value (subjects with COPD [3]; 62.5, 125, 250, 500 and 1000 mcg once-daily) was “statistically significant improvements” and the “trough FEV1 compared with open label tiotropium active control (18 mcg once-daily)” value (subjects with COPD [3]; all once-daily doses) was “numerically greater improvement”. For the same compound, the bronchodilation (subjects with COPD [4]) was “significant bronchodilation over twenty four hours” and the safety (subjects with COPD [4]) was “safe”.
With `OCc1cc([C@@H](O)CNCCCCCCOCCOCc2c(Cl)cccc2Cl)ccc1O` [compound of formula (II), 4-{(1R)-2-[(6-{2-[(2,6-dichlorobenzyl)oxy]ethoxy}hexyl)amino]-1-hydroxyethyl}-2-(hydroxymethyl)phenol] the “trough (24-hour) FEV1 compared to placebo” value (asthmatic patients) was “statistically and clinically significant improvement”, the bronchodilation ([5]; animal and human studies) was “sustained bronchodilation over a 24 hour period” and the safety profile ([5]; in vivo) was “favourable safety profile”.
With `C[C@@H]1C[C@H]2[C@@H]3C[C@H](F)C4=CC(=O)C=C[C@]4(C)[C@@]3(F)[C@@H](O)C[C@]2(C)[C@@]1(OC(=O)c1ccco1)C(=O)SCF` [fluticasone furoate, 6α,9α-difluoro-17α-[(2-furanylcarbonyl)oxy]-11β-hydroxy-16α-methyl-3-oxo-androsta-1,4-diene-17β-carbothioic acid S-fluoromethyl ester] the “change from baseline in trough FEV1 relative to placebo” value ([6]; 50-200 mcg once daily, Week 8, p<0.05) was “significantly greater increases” and the “increase in trough FEV1 from baseline relative to placebo” value ([6]; 100 mcg and 200 mcg once daily, Week 8) was over 200 mL.
